According to ChEMBL document CHEMBL1201862, “PubChem BioAssay data set” (2004):
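Test compounds were applied to cells in 96-well plates for 48 hours at 5 doses. Here, GI50 denotes the concentration required for 50% inhibition of growth.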 Activity calls are given as the source filed them. No stated cut-off is given here; in the data, active = GI50 up to about 1.1 µM and inactive = higher.

Key:
Test in all cases: NCI-60 cell line screen, 48 h
[1] = system: 786-0
[2] = system: A498
[3] = system: A549
[4] = system: ACHN
[5] = system: BT-549
[6] = system: HOP-92
[7] = system: KM12
[8] = system: MCF7
[9] = system: NCI-H226
[10] = system: NCI/ADR-RES
[11] = system: OVCAR-3
[12] = system: OVCAR-4
[13] = system: SNB-75
[14] = system: TK-10
[15] = system: UACC-257
[16] = system: UACC-62
[17] = system: CCRF-CEM
[18] = system: MDA-N
[19] = system: SR

Row | Compound | GI50 [1] | GI50 [2] | GI50 [3] | GI50 [4] | GI50 [5] | GI50 [6] | GI50 [7] | GI50 [8] | GI50 [9] | GI50 [10] | GI50 [11] | GI50 [12] | GI50 [13] | GI50 [14] | GI50 [15] | GI50 [16] | GI50 [17] | GI50 [18] | GI50 [19]
1 | Oc1ccc2ccccc2c1OCc1nnc(CCCCCCCCc2nnc(COc3c(O)ccc4ccccc34)n2Nc2ccccc2)n1Nc1ccccc1 | 21.5 µM (inactive) | 40.7 µM (inactive) | 10.5 µM (inactive) | 1.23 µM (inactive) | 6.19 µM (inactive) | 17.2 µM (inactive) | 12.5 µM (inactive) | 5.62 µM (inactive) | 8.32 µM (inactive) | 8.2 µM (inactive) | 12.9 µM (inactive) | 10.7 µM (inactive) | 38.4 µM (inactive) | 22.6 µM (inactive) | 6.38 µM (inactive) | 0.855 µM (active) | – | – | –
2 | COc1cccc(C=C2N=C(c3ccccc3)N(n3c(-c4ccccc4)nc4ccccc4c3=O)C2=O)c1 | 83.4 µM (inactive) | 67.9 µM (inactive) | 43.7 µM (inactive) | 42.3 µM (inactive) | > 100 µM (inactive) | – | 37.9 µM (inactive) | 52 µM (inactive) | > 100 µM (inactive) | – | – | – | 44.4 µM (inactive) | > 100 µM (inactive) | 30.3 µM (inactive) | 26.2 µM (inactive) | 38.7 µM (inactive) | 48.3 µM (inactive) | 33.5 µM (inactive)
3 | CC(C)(C)CNC(=O)NCn1cc(-c2ccccc2)nn1 | > 100 µM (inactive) | – | > 100 µM (inactive) | > 100 µM (inactive) | > 100 µM (inactive) | > 100 µM (inactive) | > 100 µM (inactive) | > 100 µM (inactive) | 64.6 µM (inactive) | > 100 µM (inactive) | – | > 10 µM (inactive) | – | > 100 µM (inactive) | > 100 µM (inactive) | – | > 100 µM (inactive) | – | > 100 µM (inactive)
4 | CCC1=NC(N/N=C/c2ccco2)=N/C1=C\c1ccco1 | > 100 µM (inactive) | > 100 µM (inactive) | > 100 µM (inactive) | > 100 µM (inactive) | > 100 µM (inactive) | > 100 µM (inactive) | > 100 µM (inactive) | – | > 100 µM (inactive) | > 100 µM (inactive) | – | > 100 µM (inactive) | – | > 100 µM (inactive) | > 100 µM (inactive) | > 100 µM (inactive) | > 100 µM (inactive) | > 100 µM (inactive) | > 100 µM (inactive)
5 | C1=CC2C(C3CN(c4ccccc4)N=C13)C1C3C4C=CC21C=CC43 (centres undefined) | > 100 µM (inactive) | > 100 µM (inactive) | > 100 µM (inactive) | > 100 µM (inactive) | > 100 µM (inactive) | 80 µM (inactive) | > 100 µM (inactive) | > 100 µM (inactive) | > 100 µM (inactive) | > 100 µM (inactive) | > 100 µM (inactive) | > 78.5 µM (inactive) | > 65.3 µM (inactive) | > 100 µM (inactive) | > 100 µM (inactive) | > 100 µM (inactive) | > 69.3 µM (inactive) | – | –
6 | CCOC(=O)C(C#N)C1=CC(=O)C(=O)c2ccc(OC)cc21 (centres undefined) | 25.1 µM (inactive) | 21.8 µM (inactive) | 19.7 µM (inactive) | 15.3 µM (inactive) | – | – | 20 µM (inactive) | 16.1 µM (inactive) | 21.6 µM (inactive) | 20.1 µM (inactive) | 17.9 µM (inactive) | 19 µM (inactive) | 20.8 µM (inactive) | 38.5 µM (inactive) | 17 µM (inactive) | 15.2 µM (inactive) | 43.3 µM (inactive) | 5.83 µM (inactive) | 57.1 µM (inactive)
7 | CC(=O)NC(=O)/N=C1\NCCC(=O)N1CCc1c[nH]c2ccccc12 | > 100 µM (inactive) | > 100 µM (inactive) | > 100 µM (inactive) | > 100 µM (inactive) | – | > 100 µM (inactive) | > 100 µM (inactive) | > 100 µM (inactive) | > 100 µM (inactive) | > 100 µM (inactive) | > 100 µM (inactive) | > 100 µM (inactive) | – | > 100 µM (inactive) | > 100 µM (inactive) | > 100 µM (inactive) | > 100 µM (inactive) | > 100 µM (inactive) | –
8 | O=C1[C@@H]2[C@@H](c3ccccc3)[C@]2(Cl)C(=O)[C@H]2[C@H](c3ccccc3)[C@@]12Cl | > 100 µM (inactive) | > 100 µM (inactive) | > 100 µM (inactive) | > 100 µM (inactive) | 45.8 µM (inactive) | > 100 µM (inactive) | > 100 µM (inactive) | > 100 µM (inactive) | > 100 µM (inactive) | > 100 µM (inactive) | > 100 µM (inactive) | > 100 µM (inactive) | > 100 µM (inactive) | > 100 µM (inactive) | > 100 µM (inactive) | > 100 µM (inactive) | > 100 µM (inactive) | – | 0.189 µM (active)
